From US9814727B2, “Piperazine phenothiazine derivatives for treating spasticity” (UNIVERSITE D'AIX-MARSEILLE, priority 2014, dated 2017)

What was measured:
KCC2 = test: FluxOR fluorescence based thallium (Tl+) influx assay on KCC2-expressing HEK293 cells; assay type: cell-based; conditions: for effect on KCC2 activity, normalized to the maximal effect obtained with compound 1: 30 μM, HEK KCC2 cells, 15 minutes incubation
Experimental: Wild-type or KCC2-expressing Human Embryonic Kidney (HEK) 293 cells (provided by Prof. Eric Delpire Department of Anesthesiology, Vanderbilt University Medical Center, Nashville, Tenn.) were grown up to 80-90% confluence in DMEM/Ham's F-12 (1:1) (Life technologies, Carlsbad, Calif., USA) supplemented with 10% FBS (Life technologies), 50 units/mL penicillin, and 50 µg/mL streptomycin (Life technologies). KCC2-expressing clones were under puromycin selection (20 μg/ml, Life technologies).
The FluxOR™ potassium ion channel assay (Life Technologies Carlsbad, Calif., USA) was performed as outlined in the product information sheet and an earlier published study (Delpire et al., 2009, Proc. Natl. Acad. Sci. USA, 106, 5383-88) to assess KCC2 activity, and adapted to semi-automated high throughput screening. The experiment was performed in the presence of ouabain 200 μM and bumetanide 10 μM in all buffers to block the Na^+/K^+ pump and NKCC1 cotransporters, respectively. Briefly, cells in suspension were incubated in the loading buffer containing the dye at room temperature for 90 min (1/2000 dilution of FluxOR reagent) at the density of 100.000 cells/75 μl, then centrifugated and resuspended in Assay buffer at the same cell density. A number of 100.000 cells (75 μl) were manually handled in each well to the 96-wells black-walled, μclear-bottom plates (Greiner Bio-One, Monroe, N.C., USA) and 5 μl of chemical compounds 1-8 at different concentrations in PBS 1% DMSO (5, 30 and 50 μM) were added to the plates using the Biomek® NX Laboratory automation workstation (Beckman Coulter, Villepinte, France). After 15 minutes incubation, baseline fluorescent signal was measured with the Polarstar omega microplate reader (490 nm excitation and 520 nm emission, BMG Labtech). Then 20 μL per well of 5× thallium stimulus buffer (final concentrations: Tl^+: 2 mM, K^+: 10 mM) was injected and fluorescent signal was read 30 minutes later.
For each plate, 2 columns were dedicated to controls (cell density range from 0.25 to 1.10^5 cells; loading buffer as blank; untreated or treated with NEM (33 μM, for 15 min) wild-type and KCC2-expressing HEK293 cells).
Baseline fluorescent value was subtracted from the fluorescent value measured 30 min after stimulus buffer injection for each well, and this difference was normalized to the number of cells. […] Values converted to percentages such that the maximum of ratio is 100%.

HEK cells = test: PrestoBlue cell viability assay (cytotoxicity); assay type: cell-based, Human; conditions: 30 μM
Experimental: Cytotoxicity were evaluated with fluorescent viability assay on HEK cells lines incubated 1 h with several concentrations of drugs. TC50: Toxic Concentration for 50% of the population.
After stimulus buffer induced signal acquisition, PrestoBlue® Cell Viability Reagent (Life technologies), a cell permeable resazurin-based solution was used according to manufacturer procedure as a cell viability indicator (Excitation/Emission (nm): 535-560/590-615).

SMILES | effect on KCC2 activity, normalized to the maximal effect obtained with compound 1 (KCC2) | specific activation of KCC2 across a dose range (KCC2; HEK KCC2 compared to WT HEK cells, non-cytotoxic dose range) | cytotoxicity (HEK cells)
OCCN1CCN(CCCN2c3ccccc3Sc3ccc(Cl)cc32)CC1 [compound 1, 2-[4-[3-(2-chloro-10H-phenothiazin-10-yl)propyl]piperazin-1-yl]ethanol] | 100% | activate specifically KCC2 in a dose dependant manner | 
CN1CCN(CCCN2c3ccccc3Sc3ccccc32)CC1 [compound 7, 10-[3-(4-methylpiperazin-1-yl)propyl]-10H-phenothiazine] | 55% |  | 
CCSc1ccc2c(c1)N(CCCN1CCN(C)CC1)c1ccccc1S2 [compound 8, 2-(ethylthio)-10-[3-(4-methylpiperazin-1-yl)propyl]-10H-phenothiazine] |  |  | cytotoxic
